Literature values in publication PMC3470887, “Protegrin-1 Inhibits Dengue NS2B-NS3 Serine Protease and Viral Replication in MK2 Cells” (Journal of Biomedicine and Biotechnology, 2012).

Details: mouse, iv; cited from earlier work

CC(C)C[C@H](NC(=O)[C@H](CCCNC(=N)N)NC(=O)CNC(=O)CNC(=O)[C@@H](N)CCCNC(=N)N)C(=O)N[C@H]1CSSC[C@@H](C(=O)N[C@H](C(=O)NCC(=O)N[C@@H](CCCNC(=N)N)C(N)=O)C(C)C)NC(=O)[C@H](C(C)C)NC(=O)[C@@H]2CSSC[C@H](NC(=O)[C@H](Cc3ccc(O)cc3)NC1=O)C(=O)N[C@@H](CCCNC(=N)N)C(=O)N[C@@H](CCCNC(=N)N)C(=O)N[C@@H](CCCNC(=N)N)C(=O)N[C@@H](Cc1ccccc1)C(=O)N2 [PG-1]
dose with low in vivo toxicity: up to 8 mg/kg
